Test results published in patent US8404650B2, “Methods of treating cancer with doxazolidine and prodrugs thereof” (priority 2005, dated 2013).
Read-outs that look alike come from different tables or passages of the source.

Key:
MCF-7 = assay: Growth inhibition of MCF-7 sensitive breast cancer cells (colony formation, crystal violet); type: cell-based, human; details: for IC50: Homo sapiens
Procedure: (§1) In vitro Activity. […] This cell suspension was dispensed in 200 μL aliquots (1000 cells/well) into the inside wells of 96-well tissue culture plates. Outside wells contained 200 μL of media. […] The medium was replaced with 90 μL of growth medium prior to addition of the drug. Doxaz was dissolved in DMSO at concentrations ranging from 50 μM to 1 mM. […] Serial dilutions (1:3 and 1:10) were made in sterile DMSO to yield seven solutions of decreasing drug concentration at 100× the respective working concentrations. […] Additionally, two lanes were treated with 10 μL of growth medium containing 10% sterile DMSO and one lane was treated with 90 μL of 1.5 M Tris HCl. […]
(§2) Cell growth inhibition experiments initially focused on MCF-7, MCF-7/Adr, SK-HEP-1, and Hep G2 cancer cells as well as rat cardiomyocytes as a measure of cardiotoxicity and Vero cells (green monkey kidney cells) as an additional measure of normal cell toxicity.
(§3) Activity of plasmin-activated prodrugs.
(§4) A more thorough characterization of the growth inhibition of a variety of cancer cells as well as rat cardiomyocytes by Formula IV (aFK-PABC-Doxaz) was evaluated in comparison with inhibition of growth by Doxaz, Dox and aFK-PABC-Dox. Cells were treated with drug for 3 h and colony growth was measured at 3 to 5 days when cells reached about 80% confluence. […] The breast cancer cell lines represent the multi-drug resistant (MDR) phenotype with MCF-7/Adr cells and a cell line that is transfected with the gene for urokinase plasminogen activator (uPA), the primary enzyme responsible for cleavage of plasminogen to plasmin. Rat cardiomyocytes served as a model for comparison of drug cardiotoxicity.

MCF-7/Adr = assay: Growth inhibition of multidrug resistant MCF-7/Adr breast cancer cells (crystal violet); type: cell-based; details: for IC50: Homo sapiens, NCI/ADR-RES
Procedure: as §1, §2, §3, §4

cancer cells [1] = assay: Cancer cell growth inhibition, statements over several or unnamed cell lines; type: cell-based; details: read-out: Cancer cell growth inhibition IC50 in the presence of plasmin
Procedure: In vitro Activity. […] This cell suspension was dispensed in 200 μL aliquots (1000 cells/well) into the inside wells of 96-well tissue culture plates. Outside wells contained 200 μL of media. […] The medium was replaced with 90 μL of growth medium prior to addition of the drug. Doxaz was dissolved in DMSO at concentrations ranging from 50 μM to 1 mM. […] Serial dilutions (1:3 and 1:10) were made in sterile DMSO to yield seven solutions of decreasing drug concentration at 100× the respective working concentrations. […] Additionally, two lanes were treated with 10 μL of growth medium containing 10% sterile DMSO and one lane was treated with 90 μL of 1.5 M Tris HCl. The cells were incubated at 37° C. for 3 h, at which time the drug solutions were replaced with 200 μL of fresh growth medium.
as §4

human plasmin = human plasmin (Homo sapiens, UniProt P00747); assay: Plasmin activation of prodrug and release of Doxaz (HPLC); type: biochemical; details: 37° C.
Procedure: Both Formulas IV and V were incubated with 15 μg/ml human plasmin and monitored by HPLC at 37° C. Just 4 min after the addition of plasmin, 20 percent of compound 10 was converted to Doxaz and roughly 50% of that Doxaz had hydrolyzed to Doxorubicin. Within 23 minutes, nearly all of the prodrug was converted to Doxaz and subsequently hydrolyzed to Doxorubicin.

Water solubility = type: physicochemical; details: as di-cation
αvβ3 integrin = αvβ3 integrin (Homo sapiens, UniProt P05106+P06756); details: cited from earlier work
DU-145 = assay: Growth inhibition of DU-145 prostate cancer cells; type: cell-based
Procedure: as §1
(§5) SHP-77 small cell lung cancer cells were also of interest because they express modest amounts of both enzymes. Inhibition of the growth of cardiomyocytes was used as a measure of cardiotoxicity, and inhibition of the growth of Vero cells, green monkey kidney cells, was again used as another measure of toxicity to normal cells.
A more thorough characterization of the growth inhibition of a variety of cancer cells as well as rat cardiomyocytes by Formula IV (aFK-PABC-Doxaz) was evaluated in comparison with inhibition of growth by Doxaz, Dox and aFK-PABC-Dox. […] […] The breast cancer cell lines represent the multi-drug resistant (MDR) phenotype with MCF-7/Adr cells and a cell line that is transfected with the gene for urokinase plasminogen activator (uPA), the primary enzyme responsible for cleavage of plasminogen to plasmin. Rat cardiomyocytes served as a model for comparison of drug cardiotoxicity.

SK-HEP-1 = assay: Growth inhibition of SK-HEP-1 liver cancer cells; type: cell-based, human; details: crystal violet
From the text: (§6) Cell growth inhibition experiments initially focused on MCF-7, MCF-7/Adr, SK-HEP-1, and Hep G2 cancer cells as well as rat cardiomyocytes as a measure of cardiotoxicity and Vero cells (green monkey kidney cells) as an additional measure of normal cell toxicity. […]

Hep G2 = assay: Growth inhibition of Hep G2 liver cancer cells; type: cell-based, human; details: crystal violet
From the text: as §6

[2] = system: H9c2(2-1) rat cardiomyocytes; assay: Growth inhibition of rat cardiomyocytes as a measure of cardiotoxicity; type: cell-based; details: 24 h drug treatment; crystal violet
Procedure: Biological activity of simple Doxazolidine carbamates. Since the prodrug carbamates were designed to be activated by carboxylesterases CES1 (hCE1) and/or CES2 (hiCE), cell lines of interest were measured for expression of the respective mRNAs using reverse transcription (RT) followed by PCR (polymerase chain reaction). Cancer cell lines investigated included SHP-77 resistant small cell lung, DU-145 prostate, MCF-7 sensitive breast, MCF-7/Adr resistant breast, SK-HEP-1 liver, and Hep G2 liver cells. As a measure of possible cardiotoxicity, H9c2(2-1) rat cardiomyocytes were also investigated. Cardiotoxicity is relevant because the ultimate product of metabolism and subsequent hydrolysis of these carbamates is doxorubicin, which is cardiotoxic. […] Additionally, the rat cardiomyocytes, H9c2(2-1), also express more CES2 than CES1.
Cell growth inhibition experiments initially focused on MCF-7, MCF-7/Adr, SK-HEP-1, and Hep G2 cancer cells as well as rat cardiomyocytes as a measure of cardiotoxicity and Vero cells (green monkey kidney cells) as an additional measure of normal cell toxicity. The butyl and pentyl carbamates inhibited the growth of MCF-7, MCF-7/Adr, and SK-HEP-1 cell lines with a 24 h drug treatment period with some selectivity for cancer cells over cardiomyocytes relative to growth inhibition by Dox as shown in Table 2. […] The relative inactivity of the ethyl carbamate may indicate that a substantial lipophilic interaction is required at the active site of the carboxylesterases to hold the Doxaz substrate.
Biological activity of Doxazolidine carbamates with self-eliminating spacer. […] SHP-77 small cell lung cancer cells were also of interest because they express modest amounts of both enzymes. Inhibition of the growth of cardiomyocytes was used as a measure of cardiotoxicity, and inhibition of the growth of Vero cells, green monkey kidney cells, was again used as another measure of toxicity to normal cells. They also show more activity against the cancer cells that express higher levels of CES1. Of particular note is the higher activity against Hep G2 cells than against SK-HEP-1 cells. […] The low toxicity of pentyl PABC-Doxaz to cardiomyocytes relative to the toxicity of Dox is encouraging and consistent with the low level of expression of CES1 in cardiomyocytes.
A more thorough characterization of the growth inhibition of a variety of cancer cells as well as rat cardiomyocytes by Formula IV (aFK-PABC-Doxaz) was evaluated in comparison with inhibition of growth by Doxaz, Dox and aFK-PABC-Dox. Cells were treated with drug for 3 h and colony growth was measured at 3 to 5 days when cells reached about 80% confluence. The cancer cells included one prostate cancer cell line (DU-145), three related breast cancer cell lines (MCF-7, MCF-7/Adr, and MCF-7 uPA), and one pancreatic cancer cell line (Mia PaCa-2). The breast cancer cell lines represent the multi-drug resistant (MDR) phenotype with MCF-7/Adr cells and a cell line that is transfected with the gene for urokinase plasminogen activator (uPA), the primary enzyme responsible for cleavage of plasminogen to plasmin. Rat cardiomyocytes served as a model for comparison of drug cardiotoxicity. Growth inhibition was also measured with added plasmin. aFK-PABC-Doxaz inhibited the growth of most of the cancer cells 0.5 log or more better than did aFK-PABA-Dox. Although not as dramatic, this differential response paralleled the differential response between Doxaz and Dox which is approximately two logs except for the MDR expressing, MCF-7/Adr cells which show more than three logs differential response. […] Addition of 0.01 unit/mL of plasmin has no effect on the activity of Dox but increases the activity of both aFK-PABC-Doxaz and aFK-PABC-Dox, in some cases by more than a log. Addition of 0.01 unit/mL plasminogen increases the activity of aFK-PABC-Doxaz on average by 0.3 log. […]

Vero cells = assay: Growth inhibition of Vero cells as a measure of normal cell toxicity (MTT); type: cell-based, green monkey
From the text: as §2, §5

SHP-77 = assay: Growth inhibition of SHP-77 small cell lung cancer cells; type: cell-based; details: 24 h drug treatment; crystal violet
From the text: as §5

[3] = Uptake of pentyl carbamate relative to Dox, flow cytometry, with and without fetal bovine serum; type: cell-based
Procedure: Uptake of the pentyl carbamate relative to uptake of Dox was measured by flow cytometry, monitoring fluorescence of the Dox fluorophore as a measure of drug in cells. The measurements were performed over a period of 3 h in the presence and absence of fetal bovine serum, and the results are shown in FIG. 4. […] Further, the presence of 10% fetal bovine serum decreased the uptake of doxorubicin and the pentyl carbamate by about 25%. The more rapid uptake of the pentyl carbamate in the presence and absence of serum probably reflects its increased hydrophobicity relative to that of doxorubicin which is a cation at physiological pH. Increased hydrophobicity may also be the explanation for the effect of serum on the uptake of the carbamate; namely, the carbamate binds to serum proteins reducing drug uptake.

[4] = Hydrolytic stability of Doxaz carbamate prodrugs in aqueous media; type: physicochemical; details: pH 7.4 buffer, no cells or growth media, 24 h, ambient temperature, HPLC
cancer cells [5] = details: background statement; cited from earlier work
[6] = buffer; cited from earlier work
[7] = 24 h drug treatment, crystal violet

Sequence of human plasmin (P00747 581-810 limits assumed): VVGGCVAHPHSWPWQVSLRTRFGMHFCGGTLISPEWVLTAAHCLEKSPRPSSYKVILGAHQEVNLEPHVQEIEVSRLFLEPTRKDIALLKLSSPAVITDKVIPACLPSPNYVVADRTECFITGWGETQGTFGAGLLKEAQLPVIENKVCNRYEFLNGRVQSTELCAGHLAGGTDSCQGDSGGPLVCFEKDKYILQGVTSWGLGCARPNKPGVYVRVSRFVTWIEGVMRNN
Sequence of human plasmin (P00747 97-580 partner limits assumed): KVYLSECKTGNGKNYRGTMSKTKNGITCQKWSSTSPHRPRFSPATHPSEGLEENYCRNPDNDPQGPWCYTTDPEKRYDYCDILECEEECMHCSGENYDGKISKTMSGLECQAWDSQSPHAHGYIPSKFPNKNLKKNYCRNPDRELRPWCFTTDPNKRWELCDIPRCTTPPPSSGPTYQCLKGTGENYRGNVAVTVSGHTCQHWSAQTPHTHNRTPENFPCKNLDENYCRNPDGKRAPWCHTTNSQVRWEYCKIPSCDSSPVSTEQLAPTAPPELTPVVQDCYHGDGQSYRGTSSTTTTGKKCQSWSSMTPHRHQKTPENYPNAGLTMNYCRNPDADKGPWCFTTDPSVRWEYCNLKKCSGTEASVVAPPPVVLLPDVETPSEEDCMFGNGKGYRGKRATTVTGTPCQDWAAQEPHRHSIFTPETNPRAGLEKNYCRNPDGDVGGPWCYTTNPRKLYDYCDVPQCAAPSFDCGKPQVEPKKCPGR
Sequence of αvβ3 integrin (P06756 31-889 limits assumed): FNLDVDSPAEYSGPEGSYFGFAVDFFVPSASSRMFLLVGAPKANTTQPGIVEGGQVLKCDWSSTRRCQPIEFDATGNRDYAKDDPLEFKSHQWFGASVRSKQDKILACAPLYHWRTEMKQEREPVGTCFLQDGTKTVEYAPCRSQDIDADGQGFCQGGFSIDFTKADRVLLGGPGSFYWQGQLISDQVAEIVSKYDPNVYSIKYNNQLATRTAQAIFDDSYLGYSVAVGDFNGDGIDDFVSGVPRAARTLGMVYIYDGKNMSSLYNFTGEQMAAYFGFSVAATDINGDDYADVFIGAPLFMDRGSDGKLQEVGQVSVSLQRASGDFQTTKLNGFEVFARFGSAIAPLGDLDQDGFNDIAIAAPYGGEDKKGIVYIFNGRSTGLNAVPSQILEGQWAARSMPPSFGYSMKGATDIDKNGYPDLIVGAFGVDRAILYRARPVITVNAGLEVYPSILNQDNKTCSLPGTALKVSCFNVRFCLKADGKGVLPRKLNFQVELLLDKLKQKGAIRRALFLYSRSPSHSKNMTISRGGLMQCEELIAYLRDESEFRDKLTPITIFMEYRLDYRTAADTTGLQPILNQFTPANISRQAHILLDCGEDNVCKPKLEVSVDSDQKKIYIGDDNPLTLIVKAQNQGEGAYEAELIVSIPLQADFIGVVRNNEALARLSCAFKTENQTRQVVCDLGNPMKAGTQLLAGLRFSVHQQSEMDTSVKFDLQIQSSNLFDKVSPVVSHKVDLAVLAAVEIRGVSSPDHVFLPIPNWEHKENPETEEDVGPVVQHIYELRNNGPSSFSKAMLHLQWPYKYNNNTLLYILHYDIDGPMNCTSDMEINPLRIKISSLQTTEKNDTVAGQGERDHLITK
Sequence of αvβ3 integrin (P06756 891-1048 partner limits assumed): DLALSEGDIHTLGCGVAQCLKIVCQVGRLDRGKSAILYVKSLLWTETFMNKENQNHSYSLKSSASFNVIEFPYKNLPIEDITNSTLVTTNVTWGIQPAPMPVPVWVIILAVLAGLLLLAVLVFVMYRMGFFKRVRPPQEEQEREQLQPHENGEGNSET
Sequence of αvβ3 integrin (P05106 27-788): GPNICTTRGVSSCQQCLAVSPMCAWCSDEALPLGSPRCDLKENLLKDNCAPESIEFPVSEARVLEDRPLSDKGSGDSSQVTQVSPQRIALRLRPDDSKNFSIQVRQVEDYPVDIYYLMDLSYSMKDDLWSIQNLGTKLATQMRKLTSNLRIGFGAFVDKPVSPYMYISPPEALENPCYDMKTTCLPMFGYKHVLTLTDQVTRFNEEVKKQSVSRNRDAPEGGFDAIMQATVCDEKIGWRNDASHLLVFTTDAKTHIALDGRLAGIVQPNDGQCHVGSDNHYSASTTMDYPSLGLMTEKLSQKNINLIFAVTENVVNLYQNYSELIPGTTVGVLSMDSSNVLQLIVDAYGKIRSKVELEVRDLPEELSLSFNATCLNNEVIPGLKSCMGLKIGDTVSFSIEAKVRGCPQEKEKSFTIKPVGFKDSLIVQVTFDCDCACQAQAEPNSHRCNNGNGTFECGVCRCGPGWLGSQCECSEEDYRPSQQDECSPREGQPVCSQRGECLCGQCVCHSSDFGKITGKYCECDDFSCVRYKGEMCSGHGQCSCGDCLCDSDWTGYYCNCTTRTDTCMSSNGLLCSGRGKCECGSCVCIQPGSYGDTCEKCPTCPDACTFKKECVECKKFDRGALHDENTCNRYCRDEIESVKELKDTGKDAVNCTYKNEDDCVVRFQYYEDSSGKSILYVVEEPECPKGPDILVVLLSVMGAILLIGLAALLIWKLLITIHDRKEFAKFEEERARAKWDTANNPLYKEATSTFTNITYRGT

COc1cccc2c1C(=O)c1c(O)c3c(c(O)c1C2=O)C[C@@](O)(C(=O)CO)C[C@@H]3O[C@H]1C[C@H]2[C@@H](OCN2C(=O)OCc2ccc(NC(=O)OCc3ccc(NC(=O)[C@H](CCCCN)NC(=O)[C@H](Cc4ccccc4)NC(=O)[C@@H](C)N)cc3)cc2)[C@H](C)O1 [Formula V]
IC50 (MCF-7; MCF7, 3 h, read-out: IC50 MCF-7 + plasmin): 0.009 µM | IC50 (MCF-7; MCF7, read-out: IC50 MCF-7): 0.06 µM | IC50 (MCF-7/Adr; 3 h, read-out: IC50 MCF-7/Adr + plasmin): 0.01 µM | IC50 (MCF-7/Adr; read-out: IC50 MCF-7/Adr): 0.1 µM | IC50 (cancer cells [1]): 0.005 µM | Time until nearly all of the prodrug was converted to Doxaz (human plasmin; 15 μg/ml human plasmin): ≤ 23 min | Prodrug converted to Doxaz (human plasmin; 4 min after addition of 15 μg/ml human plasmin): 20% | Water solubility (Water solubility): excellent water solubility

Lys-Arg-Gly-Asp-phe (KRGD; C-terminal D-Phe; printed: Lys-Arg-Gly-Asp-) [KRGDf]
Specificity for αvβ3 over αIIbβ3 platelet receptor (αvβ3 integrin): 1000 fold

CCCCCOC(=O)N1COC2C(C)OC(OC3CC(O)(C(=O)CO)Cc4c(O)c5c(c(O)c43)C(=O)c3c(OC)cccc3C5=O)CC21 (centres unmarked) [Doxaz Pentyl Carbamate]
Growth inhibition IC50, MCF-7, 3 h (MCF-7; 3 h drug treatment, crystal violet): >−6 log of the molar concentration | Growth inhibition IC50, MCF-7, 24 h (MCF-7; [7]): −6.1 ± 0.03 log of the molar concentration | Growth inhibition IC50, MCF-7/Adr, 24 h (MCF-7/Adr; [7]): −6.0 ± 0.09 log of the molar concentration | Cell growth inhibition IC50, DU-145 (DU-145; [7]): −6.0 ± 0.04 log of molar concentrations | Growth inhibition IC50, SK-HEP-1, 3 h (SK-HEP-1; 3 h drug treatment): >−6 log of the molar concentration | Growth inhibition IC50, SK-HEP-1, 24 h (SK-HEP-1; 24 h drug treatment): −6.7 ± 0.1 log of the molar concentration | Growth inhibition IC50, Hep G2, 3 h (Hep G2; 3 h drug treatment): >−6 log of the molar concentration | Growth inhibition IC50, Hep G2, 24 h (Hep G2; 24 h drug treatment): −6.5 ± 0.3 log of the molar concentration | Growth inhibition IC50, H9c2(2-1), 24 h [2]: −6.6 ± 0.1 log of the molar concentration | Growth inhibition IC50, Vero, 3 h (Vero cells; 3 h drug treatment): −5.4 ± 0.1 log of the molar concentration | Growth inhibition IC50, Vero, 24 h (Vero cells; 24 h drug treatment): −5.3 ± 0.01 log of the molar concentration | Cell growth inhibition IC50, SHP-77 (SHP-77): −6.3 ± 0.3 log of molar concentrations | Decrease of uptake by 10% fetal bovine serum ([3]; 10% fetal bovine serum, flow cytometry, 3 h): about 25% | Uptake relative to Dox ([3]; flow cytometry over 3 h, with and without serum): taken up at a higher level and more rapidly than Dox | Stability to hydrolysis in buffer [4]: stable to hydrolysis

COc1cccc2c1C(=O)c1c(O)c3c(c(O)c1C2=O)C[C@@](O)(C(=O)CO)C[C@@H]3O[C@H]1C[C@H]2C(OCN3CN2CO[C@H]2[C@@H](C)O[C@@H](O[C@H]4C[C@](O)(C(=O)CO)Cc5c(O)c6c(c(O)c54)C(=O)c4c(OC)cccc4C6=O)C[C@@H]23)[C@H](C)O1 (some centres unmarked) [EpiF, Epidoxoform, reference compound]
IC50 (MCF-7; MCF7, 3 h, read-out: IC50 MCF-7): 0.065 µM | IC50 (MCF-7/Adr; 3 h, read-out: IC50 MCF-7/Adr): 0.07 µM | IC50 (DU-145; Homo sapiens, DU-145, 3 h, read-out: IC50 DU-145): 0.026 ± 0.005 µM | Less active than DoxF in cancer cell growth inhibition (cancer cells [5]): 50 fold | Half-life, stability in water with respect to loss of formaldehyde [6]: 2 h
